Reference: ChEMBL document CHEMBL3046635, “Synthesis and Herbicidal Activity of New Pyrazole-4-carboxamide Derivatives” (J Pestic Sci, 2004)
Calls of active or inactive are those of the source. Unless noted, the calls are words filed in the database; no cut-off is given here.

Legend:
[1] = system: Eleocharis acicularis; test: Pre-emergence herbicidal activity against Eleocharis acicularis at 100 g a.i/ha measured after 14 days; format: functional, organism-based
[2] = system: Oryza sativa; test: Phytotoxicity against Oryza sativa cv. Koshihikari (rice) at 100 g a.i/ha measured after 14 days; format: organism-based; conditions: in vivo, 336 h
[3] = system: Schoenoplectiella juncoides; test: Pre-emergence herbicidal activity against Schoenoplectiella juncoides at 100 g a.i/ha measured after 14 days; format: functional, organism-based
[4] = system: Pontederia vaginalis; test: Pre-emergence herbicidal activity against Monochoria vaginalis at 100 g a.i/ha measured after 14 days; format: functional, organism-based
[5] = system: Ammannia multiflora; test: Pre-emergence herbicidal activity against Ammannia multiflora at 100 g a.i/ha measured after 14 days; format: functional, organism-based
[6] = system: Rotala indica; test: Pre-emergence herbicidal activity against Rotala indica at 100 g a.i/ha measured after 14 days; format: functional, organism-based
[7] = system: Elatine triandra; test: Pre-emergence herbicidal activity against Elatine triandra at 100 g a.i/ha measured after 14 days; format: functional, organism-based
[8] = system: Lindernia procumbens; test: Pre-emergence herbicidal activity against Lindernia procumbens at 100 g a.i/ha measured after 14 days; format: functional, organism-based
[9] = system: Cyperus difformis; test: Pre-emergence herbicidal activity against Cyperus difformis at 100 g a.i/ha measured after 14 days; format: functional, organism-based
[10] = system: Echinochloa oryzicola; test: Pre-emergence herbicidal activity against Echinochloa oryzicola at 100 g a.i/ha measured after 14 days; format: functional, organism-based
[11] = system: Oryza sativa; test: Phytotoxicity against Oryza sativa cv. Koshihikari (rice) at 500 g a.i/ha measured after 14 days; format: organism-based; conditions: in vivo, 336 h
[12] = system: Eleocharis acicularis; test: Pre-emergence herbicidal activity against Eleocharis acicularis at 500 g a.i/ha measured after 14 days; format: functional, organism-based
[13] = system: Pontederia vaginalis; test: Pre-emergence herbicidal activity against Monochoria vaginalis at 500 g a.i/ha measured after 14 days; format: functional, organism-based
[14] = system: Schoenoplectiella juncoides; test: Pre-emergence herbicidal activity against Schoenoplectiella juncoides at 500 g a.i/ha measured after 14 days; format: functional, organism-based
[15] = system: Ammannia multiflora; test: Pre-emergence herbicidal activity against Ammannia multiflora at 500 g a.i/ha measured after 14 days; format: functional, organism-based
[16] = system: Elatine triandra; test: Pre-emergence herbicidal activity against Elatine triandra at 500 g a.i/ha measured after 14 days; format: functional, organism-based
[17] = system: Rotala indica; test: Pre-emergence herbicidal activity against Rotala indica at 500 g a.i/ha measured after 14 days; format: functional, organism-based
[18] = system: Lindernia procumbens; test: Pre-emergence herbicidal activity against Lindernia procumbens at 500 g a.i/ha measured after 14 days; format: functional, organism-based
[19] = system: Echinochloa oryzicola; test: Pre-emergence herbicidal activity against Echinochloa oryzicola at 500 g a.i/ha measured after 14 days; format: functional, organism-based
[20] = system: Cyperus difformis; test: Pre-emergence herbicidal activity against Cyperus difformis at 500 g a.i/ha measured after 14 days; format: functional, organism-based
[21] = system: Eleocharis acicularis; test: Post-emergence herbicidal activity against Eleocharis acicularis assessed as bleaching of stem/leaf parts; format: functional, organism-based; further: test concentration or dose not given here
[22] = system: Eleocharis acicularis; test: Pre-emergence herbicidal activity against Eleocharis acicularis assessed as bleaching of stem/leaf parts; format: functional, organism-based
[23] = system: Ammannia multiflora; test: Pre-emergence herbicidal activity against Ammannia multiflora assessed as bleaching of stem/leaf parts; format: functional, organism-based
[24] = system: Rotala indica; test: Pre-emergence herbicidal activity against Rotala indica assessed as bleaching of stem/leaf parts; format: functional, organism-based
[25] = system: Elatine triandra; test: Pre-emergence herbicidal activity against Elatine triandra assessed as bleaching of stem/leaf parts; format: functional, organism-based
[26] = system: Lindernia procumbens; test: Pre-emergence herbicidal activity against Lindernia procumbens assessed as bleaching of stem/leaf parts; format: functional, organism-based
[27] = system: Schoenoplectiella juncoides; test: Pre-emergence herbicidal activity against Schoenoplectiella juncoides assessed as bleaching of stem/leaf parts; format: functional, organism-based
[28] = system: Pontederia vaginalis; test: Pre-emergence herbicidal activity against Monochoria vaginalis assessed as bleaching of stem/leaf parts; format: functional, organism-based
[29] = system: Cyperus difformis; test: Pre-emergence herbicidal activity against Cyperus difformis assessed as bleaching of stem/leaf parts; format: functional, organism-based
[30] = system: Echinochloa oryzicola; test: Pre-emergence herbicidal activity against Echinochloa oryzicola assessed as bleaching of stem/leaf parts; format: functional, organism-based
[31] = system: Ammannia multiflora; test: Post-emergence herbicidal activity against Ammannia multiflora assessed as bleaching of stem/leaf parts; format: functional, organism-based; further: test concentration or dose not given here
[32] = system: Elatine triandra; test: Post-emergence herbicidal activity against Elatine triandra assessed as bleaching of stem/leaf parts; format: functional, organism-based; further: test concentration or dose not given here
[33] = system: Rotala indica; test: Post-emergence herbicidal activity against Rotala indica assessed as bleaching of stem/leaf parts; format: functional, organism-based; further: test concentration or dose not given here
[34] = system: Schoenoplectiella juncoides; test: Post-emergence herbicidal activity against Schoenoplectiella juncoides assessed as bleaching of stem/leaf parts; format: functional, organism-based; further: test concentration or dose not given here
[35] = system: Lindernia procumbens; test: Post-emergence herbicidal activity against Lindernia procumbens assessed as bleaching of stem/leaf parts; format: functional, organism-based; further: test concentration or dose not given here
[36] = system: Pontederia vaginalis; test: Post-emergence herbicidal activity against Monochoria vaginalis assessed as bleaching of stem/leaf parts; format: functional, organism-based; further: test concentration or dose not given here
[37] = system: Cyperus difformis; test: Post-emergence herbicidal activity against Cyperus difformis assessed as bleaching of stem/leaf parts; format: functional, organism-based; further: test concentration or dose not given here
[38] = system: Echinochloa oryzicola; test: Post-emergence herbicidal activity against Echinochloa oryzicola assessed as bleaching of stem/leaf parts; format: functional, organism-based; further: test concentration or dose not given here

SMILES	Activity [1]	Activity [2]	Activity [3]	Activity [4]	Activity [5]	Activity [6]	Activity [7]	Activity [8]	Activity [9]	Activity [10]	Activity [11]	Activity [12]	Activity [13]	Activity [14]	Activity [15]	Activity [16]	Activity [17]	Activity [18]	Activity [19]	Activity [20]	other results
Cn1cc(C(=O)NOc2cccc(Cl)c2)c(OCc2cccc(C(F)(F)F)c2)n1	Active	Non-toxic	Active	Active	Active	Active	Active	Active	Active	Active	Non-toxic	Active	Active	Active	Active	Active	Active	Active	Active	Active	Activity [21]: Active; Activity [22]: Active; Activity [23]: Active; Activity [24]: Active; Activity [25]: Active; Activity [26]: Active; Activity [27]: Active; Activity [28]: Active; Activity [29]: Active; Activity [30]: Active; Activity [31]: Active; Activity [32]: Active; Activity [33]: Active; Activity [34]: Active; Activity [35]: Active; Activity [36]: Active; Activity [37]: Active; Activity [38]: Active
CCCN(OCC)C(=O)c1cn(C)nc1OCc1cccc(C(F)(F)F)c1	inactive	Non-toxic	inactive	inactive	Active	Active	Active	Active	Active	Active	Non-toxic	Active	Active	inactive	Active	Active	Active	Active	Active	Active	Activity [21]: Active; Activity [22]: Active; Activity [23]: Active; Activity [24]: Active; Activity [25]: Active; Activity [26]: Active; Activity [27]: Active; Activity [28]: Active; Activity [29]: Active; Activity [30]: Active; Activity [31]: Active; Activity [32]: Active; Activity [33]: Active; Activity [34]: Active; Activity [35]: Active; Activity [36]: Active; Activity [37]: Active; Activity [38]: Active
CCCONC(=O)c1cn(C)nc1OCc1cccc(C(F)(F)F)c1	Active	Non-toxic	Active	Active	Active	Active	Active	Active	Active	Active	Toxic	Active	Active	Active	Active	Active	Active	Active	Active	Active	Activity [21]: Active; Activity [22]: Active; Activity [23]: Active; Activity [24]: Active; Activity [25]: Active; Activity [26]: Active; Activity [27]: Active; Activity [28]: Active; Activity [29]: Active; Activity [30]: Active; Activity [31]: Active; Activity [32]: Active; Activity [33]: Active; Activity [34]: Active; Activity [35]: Active; Activity [36]: Active; Activity [37]: Active; Activity [38]: Active
Cn1cc(C(=O)NOc2ccc(C(F)(F)F)cc2)c(OCc2cccc(C(F)(F)F)c2)n1	Active	Non-toxic	Active	Active	Active	Active	Active	Active	Active	Active	Non-toxic	Active	Active	Active	Active	Active	Active	Active	Active	Active	Activity [21]: Active; Activity [22]: Active; Activity [23]: Active; Activity [24]: Active; Activity [25]: Active; Activity [26]: Active; Activity [27]: Active; Activity [28]: Active; Activity [29]: Active; Activity [30]: Active; Activity [31]: Active; Activity [32]: Active; Activity [33]: Active; Activity [34]: Active; Activity [35]: Active; Activity [36]: Active; Activity [37]: Active; Activity [38]: Active
Cn1cc(C(=O)NOc2ccc(Cl)cc2)c(OCc2cccc(C(F)(F)F)c2)n1	Active	Non-toxic	Active	Active	Active	Active	Active	Active	Active	inactive	Non-toxic	Active	Active	Active	Active	Active	Active	Active	Active	Active	Activity [21]: Active; Activity [22]: Active; Activity [23]: Active; Activity [24]: Active; Activity [25]: Active; Activity [26]: Active; Activity [27]: Active; Activity [28]: Active; Activity [29]: Active; Activity [30]: Active; Activity [31]: Active; Activity [32]: Active; Activity [33]: Active; Activity [34]: Active; Activity [35]: Active; Activity [36]: Active; Activity [37]: Active; Activity [38]: Active
